Experimental data as given in ChEMBL document CHEMBL5576088, “Skin- and airway-deliverable TRPA1 inhibitor” (Bioorg Med Chem, 2024).
One block for each compound: values may come before it. Activity calls are given as the source filed them. The rule behind the calls is not given here.

Legend:
[1] = target: T1, Transient receptor potential cation channel subfamily A member 1 (Homo sapiens, UniProt O75762); experiment: Antagonist activity at human TRPA1 expressed in HEK293T cells assessed as inhibition of AITC-induced current by whole cell patch clamp analysis; type: cell-based
[2] = target: T1, Transient receptor potential cation channel subfamily A member 1; experiment: Antagonist activity at wildtype human TRPA1 expressed in HEK293 cells assessed as inhibition of AITC-induced intracellular Ca2+ flux at 100 uM in presence of 5 uM AITC by Fluo4-AM dye based fluorescence analysis; type: cell-based; conditions: filed as antagonist
[3] = target: T1, Transient receptor potential cation channel subfamily A member 1; experiment: Antagonist activity at human TRPA1 expressed in HEK293 cells assessed as inhibition of AITC-induced intracellular Ca2+ flux in presence of 5 uM AITC by Fluo4-AM dye based fluorescence analysis; type: cell-based
[4] = target: T1, Transient receptor potential cation channel subfamily A member 1; experiment: Antagonist activity at full length human TRPA1 expressed in HEK293 cells assessed as inhibition of AITC-induced intracellular Ca2+ flux in presence of 10 uM AITC by Fluo4-AM dye based fluorescence analysis; type: cell-based
Homo sapiens = experiment: Inhibition of methylparaben/phenoxyethanol-induced sensory irritation in human at 0.2% applied topically and measured for 8 mins; type: functional, organism-based; conditions: route top

T1 sequence (O75762 whole entry): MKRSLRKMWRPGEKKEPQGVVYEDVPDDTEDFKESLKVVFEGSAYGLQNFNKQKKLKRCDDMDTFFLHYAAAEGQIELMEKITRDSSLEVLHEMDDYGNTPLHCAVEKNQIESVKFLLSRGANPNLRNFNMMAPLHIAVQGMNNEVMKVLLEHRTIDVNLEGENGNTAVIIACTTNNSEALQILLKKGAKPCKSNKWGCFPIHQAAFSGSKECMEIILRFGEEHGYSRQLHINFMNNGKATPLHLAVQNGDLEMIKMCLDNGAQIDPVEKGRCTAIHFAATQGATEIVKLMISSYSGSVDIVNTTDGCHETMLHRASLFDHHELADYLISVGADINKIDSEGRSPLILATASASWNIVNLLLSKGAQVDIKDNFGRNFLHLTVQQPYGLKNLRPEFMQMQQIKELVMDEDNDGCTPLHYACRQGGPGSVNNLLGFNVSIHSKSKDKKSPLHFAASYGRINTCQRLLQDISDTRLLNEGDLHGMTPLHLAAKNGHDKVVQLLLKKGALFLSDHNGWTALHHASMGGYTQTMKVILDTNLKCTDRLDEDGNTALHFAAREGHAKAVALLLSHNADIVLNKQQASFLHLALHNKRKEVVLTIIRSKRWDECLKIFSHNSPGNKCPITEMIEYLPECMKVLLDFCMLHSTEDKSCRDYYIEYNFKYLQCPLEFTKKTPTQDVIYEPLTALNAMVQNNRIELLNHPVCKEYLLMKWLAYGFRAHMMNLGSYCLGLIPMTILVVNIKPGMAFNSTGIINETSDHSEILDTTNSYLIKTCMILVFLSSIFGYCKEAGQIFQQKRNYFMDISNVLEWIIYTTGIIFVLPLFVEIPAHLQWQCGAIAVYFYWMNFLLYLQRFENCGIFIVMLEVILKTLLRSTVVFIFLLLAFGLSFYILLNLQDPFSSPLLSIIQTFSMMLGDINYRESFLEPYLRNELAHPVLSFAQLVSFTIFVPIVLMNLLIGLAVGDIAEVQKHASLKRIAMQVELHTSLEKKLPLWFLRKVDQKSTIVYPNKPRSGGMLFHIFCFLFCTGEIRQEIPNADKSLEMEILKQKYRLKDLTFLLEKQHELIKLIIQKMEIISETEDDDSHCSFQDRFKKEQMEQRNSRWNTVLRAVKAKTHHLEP

IC50 [3]: 17 µM
Structure (SMILES): CC(CO)C(C)Cc1ccccc1 (mixture of isomers)

IC50 [3]: 21.8 µM
Structure (SMILES): CCC(O)C(C)Cc1ccccc1 (mixture of isomers)

IC50 [3]: 19.8 µM
Structure (SMILES): CC(CCO)CC(C)c1ccccc1 (mixture of isomers)

IC50 [3]: 32.1 µM
Structure (SMILES): C/C(=C\C(C)c1ccccc1)CO (racemic)

The remaining lines, values behind:

Structure (SMILES): CC1(C)[C@@H]2CC[C@@]1(C)[C@](C)(O)C2
IC50 [1]: 120 µM

Structure (SMILES): CC(C)c1ccc(NC(=O)Cn2cnc3c2c(=O)n(C)c(=O)n3C)cc1
Activity [2]: Active

Structure (SMILES): CC1(C)C2CCC1(C)C(O)C2 (racemic) [BORNEOL]
IC50 [4]: 529 µM
inhibition (Homo sapiens): inactive

Structure (SMILES): CC(=C\c1ccc(Cl)cc1)/C(C)=N/O [AP18 5]
Activity [2]: Active
IC50 [4]: 1.72 µM
